Laboratory results taken from patent US8017584B2, “GD3-mimetic peptides” (Otsuka Pharmaceutical Co., Ltd., priority 2000, dated 2011).
Where “and” joins values, the source holds several entries; their conditions need not be identical. Identical values can stand only once.

What was measured:
Anti-GD2 antibody = experiment: ELISA of immobilized MAP-form peptides with control anti-GD2 antibody; type: binding; settings: MAP form 100 ng/well
Procedure: A 0.1M NaHCO3 solution containing a GD3-mimetic peptide of the invention in the above MAP form (100 ng/100 μL) was added to the wells of a 96-well micro-titer plate, for immobilization at room temperature for one hour. Subsequently, in a manner similar to the ELISA method employed in Example 2, binding affinity of the GD3-mimetic peptide to GD3 antibody 4F6 was investigated.
Anti-GD2 antibody and anti-OAcGD3 antibody (Cerato, E., et al., Hybridoma, 16(4), 307-316 (1997)) were used as controls (these antibodies were kindly provided by from Dr. Portoukalian).

[1] = Titer against GD3 (ELISA) of antiserum from mice immunized with MAP peptides (Example 4); type: in vivo, mice (C57BL/6); settings: individual mice
Procedure: Four species of GD3-mimetic peptide (MAP) obtained in Example 3 (2) was dissolved in PBS so as to attain a concentration of 200 μg/mL. The solution was added to Freund's complete (or incomplete) adjuvant (1:1, by volume), to thereby prepare an emulsion.
Eight mice (C57BL/6) were immunized by subcutaneous administration of the above emulsion (0.2 mL/mouse, in one administration, […]). Administration was performed every two weeks (for the second and subsequent administrations, Freund's incomplete adjuvant was used). After one week following respective administrations, blood was collected from the tail of each mouse, to thereby yield antiserum.
The antiserum obtained directly after the first administration will be referred to “1-st,” that obtained after the second administration will be referred to “2-nd,” and that obtained after the third administration will be referred to “3-rd.”
The titer, against GD3, of each of the antiserum samples (3×8 mice=24 samples) obtained in the (1) above was measured through ELISA as described below.
The thus-obtained purified GD3 was dissolved in methanol, whereby a GD3 solution having a concentration of 10 μg/mL was prepared. The GD3 solution was added to the wells of a 96-well micro-titer plate in amounts of 10 μL per well (which corresponds to 100 ng GD3 per well), and methanol was evaporated. Subsequently, a blocking solution (TBS supplemented with 1% BSA) was added to the wells in amounts of 50 μL per well, for blocking at 37° C. for 4 hours.
The supernatant was discarded. Each of the antiserum samples obtained in (1) above was diluted 100-fold, 400-fold, or 1,600 fold with the above-mentioned blocking solution. The diluted antiserum (50 μL) was added to each well for reaction at 4° C. overnight. The well was washed six times with TBS, and thereafter, HRP-labeled […] diluted 5,000-fold with the blocking solution was added (50 μL per well) for reaction for 2 hours at room temperature. The well was washed four times with TBS, and thereafter, enzymatic activity (peroxidase) of the well was detected with TMB solution (50 μL). The reaction was stopped with 1N HCl (50 μL), and the value corresponding to “420 nm-620 nm” was calculated.
A control sample was prepared as follows. […] The synthesized peptide was administered to a mouse for immunization, and the obtained antiserum served as a control sample. The titer of the control sample was obtained in a manner similar to that described above. (However, the number of provided mice was five, and only a 100-fold diluted solution was used.) This control peptide sample was also used in the form of MAP as described above.

[2] = tested on: T-cell-rich lymphocytes / IL-2-dependent CTLL2 cells; experiment: Cell response test: IL-2 activity (3H thymidine up-take of CTLL2 cells) in supernatant of spleen cells of mice immunized with GD3; type: cell-based, mouse; settings: for 3H Thymidine up-take into CTLL2 cells, mean ± SE (4 wells): mice immunized with GD3
Procedure: Similar to the case of immunization with R4-KLH, antiserum samples were also prepared through immunization with GD3 (30 μg).
(§1) The spleen aseptically removed from each of the above-immunized mice was minced in a 10% FCS-supplemented RPMI 1640 medium. By use of a nylon wool column, T-cell-rich lymphocytes were prepared and the cells were counted. The above medium containing the cells in an amount of 10^5 cells per 150 μL was added to each of the wells of a culture plate. PHA was added so as to attain a final concentration of 1 μg/mL. A peptide of the present invention or any of different gangliosides in PBS was added, and the mixture was incubated for 96 hours. A supernatant (100 μL) was obtained from each well. The IL-2 activity of the supernatant was determined through use of IL-2-dependent mouse cells, CTLL2. Briefly, the supernatant (100 μL) diluted 2 to 50-fold with a medium was added to the wells in an amount of 10^4 CTLL2 cells/well, followed by incubation at 37° C. for 48 hours. Subsequently, 3H-thymidine (0.5 μCi) was added to each well, followed by incubation for 6 hours. CTLL2 cells were recovered on a paper filter and counted for 3H.

[3] = tested on: T-cell-rich lymphocytes / IL-2-dependent CTLL2 cells; experiment: Cell response test: IL-2 activity (3H thymidine up-take of CTLL2 cells) in supernatant of spleen cells of mice immunized with R4 peptide (R4-KLH); type: cell-based, mouse; settings: for 3H Thymidine up-take into CTLL2 cells, mean ± SE (4 wells): mice immunized with R4 peptide
Procedure: Using a fusion peptide R4-KLH obtained in Example 3 (4) between GD3R4 and KLH or a MAP form fusion peptide R4MAP-KLH created between GD3R4 and KLH, immunization was performed as described in (1) above.
Briefly, an emulsion mixed with an adjuvant (1:1, by volume) was administered to each member of groups of mice, each group consisting of 3 mice (CD-1), in an amount of 100 μL/mouse (for one administration (ip), peptide 30 μg/mouse) for immunization. In the case of R4-KLH, administration was performed every one week for one month, and subsequently every two weeks for one month; and in the case of R4MAP-KLH, every one week for 2 months. In any case, 4 days after the final immunization, blood was collected to thereby prepare antiserum samples.
as §1

[4] = stimulant 1 μg/ml, supernatant dilution 1/20
[5] = stimulant 1 μg/ml, supernatant dilution 1/50
[6] = stimulant 1 μg/ml, supernatant dilution ½
[7] = stimulant 1 μg/ml, supernatant dilution ⅕
[8] = stimulant 2 μg/ml, supernatant dilution 1/20
[9] = stimulant 2 μg/ml, supernatant dilution 1/50
[10] = stimulant 2 μg/ml, supernatant dilution ½
[11] = stimulant 2 μg/ml, supernatant dilution ⅕
[12] = stimulant 5 μg/ml, supernatant dilution 1/20
[13] = stimulant 5 μg/ml, supernatant dilution 1/50
[14] = stimulant 5 μg/ml, supernatant dilution ½
[15] = stimulant 5 μg/ml, supernatant dilution ⅕

GLAPPDYAERFELLS [GD3R3, tested as phage clone, MAP form or peptide]
ELISA absorbance, Anti-GD2 antibody (Anti-GD2 antibody; Serum % 12.50%): 0.077 | ELISA absorbance, Anti-GD2 antibody (Anti-GD2 antibody; Serum % 25%): 0.118 | ELISA absorbance, Anti-GD2 antibody (Anti-GD2 antibody; Serum % 50%): 0.036 | ELISA absorbance, Anti-GD2 antibody (Anti-GD2 antibody; Serum % 100%): 0.191 | reactivity of antiserum with GD3 (ELISA absorbance) ([1]; antiserum 1st (after first administration), dilution factor 1/100, MAP 5 μg/mouse s.c.): 0.105 and 0.062 (2×) and 0.098 and 0.051 and 0.04 and 0.165 and 0.169 | reactivity of antiserum with GD3 (ELISA absorbance) ([1]; antiserum 1st, dilution factor 1/400): 0.077 and 0.004 and 0.048 and 0.016 and 0.026 and 0.067 and 0.071 and 0.083 | reactivity of antiserum with GD3 (ELISA absorbance) ([1]; antiserum 1st, dilution factor 1/1600): 0.009 and 0.016 and 0.006 and 0.023 and 0.003 and 0.031 and 0.015 and 0.017 | reactivity of antiserum with GD3 (ELISA absorbance) ([1]; antiserum 2nd (after second administration), dilution factor 1/100): 0.116 and 0.098 and 0.08 (2×) and 0.165 and 0.132 and 0.135 and 0.179 | reactivity of antiserum with GD3 (ELISA absorbance) ([1]; antiserum 2nd, dilution factor 1/400): 0.078 and 0.079 and 0.112 and 0.118 and 0.088 (2×) and 0.076 and 0.054 | reactivity of antiserum with GD3 (ELISA absorbance) ([1]; antiserum 2nd, dilution factor 1/1600): 0.025 (2×) and 0.034 and 0.022 and 0.027 and 0.018 and 0.07 and 0.024 | reactivity of antiserum with GD3 (ELISA absorbance) ([1]; antiserum 3rd (after third administration), dilution factor 1/100): 0.126 and 0.143 and 0.069 and 0.189 (2×) and 0.073 and 0.098 and 0.047 | reactivity of antiserum with GD3 (ELISA absorbance) ([1]; antiserum 3rd, dilution factor 1/400): 0.039 and 0.032 and 0.028 and 0.073 and 0.033 and 0.03 and 0.023 and 0.022 | reactivity of antiserum with GD3 (ELISA absorbance) ([1]; antiserum 3rd, dilution factor 1/1600): 0.027 and 0.026 and 0.018 (3×) and 0.017 and 0.013 and 0.016 | IL-2 production by T-cell-rich lymphocytes ([2]; lymphocytes from GD3-immunized mouse): production of IL-2 has been confirmed | 3H Thymidine up-take into CTLL2 cells, mean ± SE (4 wells) [2, 4]: 1153 ± 246 | 3H Thymidine up-take into CTLL2 cells, mean ± SE (4 wells) [2, 5]: 571 ± 104 | 3H Thymidine up-take into CTLL2 cells, mean ± SE (4 wells) [2, 6]: 4066 ± 853 | 3H Thymidine up-take into CTLL2 cells, mean ± SE (4 wells) [2, 7]: 2654 ± 486 | 3H Thymidine up-take into CTLL2 cells, mean ± SE (4 wells) [2, 8]: 1540 ± 467 | 3H Thymidine up-take into CTLL2 cells, mean ± SE (4 wells) [2, 9]: 749 ± 118 | 3H Thymidine up-take into CTLL2 cells, mean ± SE (4 wells) [2, 10]: 5791 ± 1154 | 3H Thymidine up-take into CTLL2 cells, mean ± SE (4 wells) [2, 11]: 3243 ± 634 | 3H Thymidine up-take into CTLL2 cells, mean ± SE (4 wells) [2, 12]: 1566 ± 328 | 3H Thymidine up-take into CTLL2 cells, mean ± SE (4 wells) [2, 13]: 761 ± 102 | 3H Thymidine up-take into CTLL2 cells, mean ± SE (4 wells) [2, 14]: 7536 ± 1247 | 3H Thymidine up-take into CTLL2 cells, mean ± SE (4 wells) [2, 15]: 3528 ± 543 | activation of T cells ([3]; R4-KLH-immunized mice): T cells have been confirmed to have activated | 3H Thymidine up-take into CTLL2 cells, mean ± SE (4 wells) [3, 4]: 1491 ± 364 | 3H Thymidine up-take into CTLL2 cells, mean ± SE (4 wells) [3, 5]: 682 ± 120 | 3H Thymidine up-take into CTLL2 cells, mean ± SE (4 wells) [3, 6]: 5577 ± 1063 | 3H Thymidine up-take into CTLL2 cells, mean ± SE (4 wells) [3, 7]: 2986 ± 327 | 3H Thymidine up-take into CTLL2 cells, mean ± SE (4 wells) [3, 8]: 1527 ± 337 | 3H Thymidine up-take into CTLL2 cells, mean ± SE (4 wells) [3, 9]: 736 ± 137 | 3H Thymidine up-take into CTLL2 cells, mean ± SE (4 wells) [3, 10]: 6351 ± 1314 | 3H Thymidine up-take into CTLL2 cells, mean ± SE (4 wells) [3, 11]: 3184 ± 439 | 3H Thymidine up-take into CTLL2 cells, mean ± SE (4 wells) [3, 12]: 1684 ± 375 | 3H Thymidine up-take into CTLL2 cells, mean ± SE (4 wells) [3, 13]: 812 ± 151 | 3H Thymidine up-take into CTLL2 cells, mean ± SE (4 wells) [3, 14]: 7898 ± 1496 | 3H Thymidine up-take into CTLL2 cells, mean ± SE (4 wells) [3, 15]: 3652 ± 681
